This assay has as its system CEM cells HIV-1 protection, formazan growth assay. The experiment in a line: NCI AIDS Antiviral Assay. The following applies: for IC50: measured here: growth of uninfected CEM cells. In outline: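 Human CEM cells, uninfected and HIV-1-infected, received five drug concentrations, and growth was read by soluble formazan assay. Compounds giving at least 50% protection were retested; reproducible 100% protection defined confirmed active.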

SMILES strings stand for the structures. The source made the active and inactive calls.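 Rule for the calls: active = compounds giving half or more protection of infected cells from virus-caused growth loss, again on retest; inactive = the rest.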

For `O=C(NCCCNC(=O)c1ccc2cc(O)c(O)cc2c1)c1ccc2cc(O)c(O)cc2c1`, the outcome was inactive.

Turning to `CC1=C(C(=O)Nc2ccccc2)C(c2ccc(N(C)C)cc2)C(C(=O)Nc2ccccc2)=C(C)N1`, the outcome was inactive.

Turning to `O=C(NC(Cc1c[nH]c2ccccc12)C(=O)O)/C(=C/c1ccccc1O)NC(=O)c1ccccc1` (stereo unspecified), the EC50 is greater than 200 µM and the half-inhibitory concentration (IC50) is greater than 200 µM.

`CCOC(=O)C1(C(=O)OCC)C[C@]23OCCC(=O)[C@H]2[C@H]2C(=O)OC(C)(C)O[C@]23C1`: the EC50 was greater than 200 µM and the IC50 was greater than 200 µM.

`N#Cc1c(-c2ccc(Cl)cc2Cl)nc2[nH][nH]c(=S)n2c1=O`: the EC50 is greater than 100 µM and the IC50 is greater than 100 µM.

Consider `OCC1OC2(CCCC3CC32)O[C@H]1CO` (stereo partly specified), for which the result was inactive.

As to `COc1ccc(N=Nc2c(N)nn(C)c2N)cc1`, the result was inactive.

Consider `CCCC/C=C(/CCCNCCCC)[Si](C)(C)C`, for which the EC50 is greater than 479 µM and the half-inhibitory concentration (IC50) was found to be 240 µM.

In the case of `COc1cc2c(cc1OCc1ccccc1)NC(=O)[C@@H]1CCCN1C2=O`, the EC50 was greater than 200 µM and the 50% inhibitory concentration (IC50) was greater than 200 µM.

On to `CCN(CC)CCC(=O)c1ccc(Oc2ccc(Cl)cc2)cc1`, for which the EC50 is greater than 200 µM and the half-inhibitory concentration (IC50) came to 30.2 µM.

Regarding `CCOC(=O)/C(=C\c1ccc(C)o1)P(=O)(OCC)OCC`, the EC50 is greater than 794 µM and the IC50 is greater than 100 µM.

Regarding `COc1ccc(C2C(Cl)C(=O)N2NC(=O)c2ccccc2O)cc1OC` (stereo unspecified), the EC50 was greater than 50.1 µM and the IC50 came to 41.7 µM.

As for `Nc1ncnc2nc(C(O)C(O)C(O)CO)[nH]c12` (stereo unspecified), the EC50 is greater than 102 µM and the IC50 was greater than 102 µM.

For `CN1CCN(CCC=C2c3ccccc3Sc3ccc(S(=O)(=O)N(C)C)cc32)CC1`, the EC50 was greater than 200 µM and the concentration for half-maximal inhibition (IC50) stood at 11.7 µM.

With `CN=C(NC)c1ncn(C2OC(CO)C(O)C2O)n1` (stereo unspecified), the outcome was inactive.

Turning to `CN(C(=O)C12C3C4(C(=O)O)C1(C(=O)N(C)C(C)(C)C)C1C2(C(=O)O)C3(C(=O)N(C)C(C)(C)C)C14C(=O)N(C)C(C)(C)C)C(C)(C)C` (stereo unspecified), the EC50 is greater than 151 µM and the IC50 is greater than 151 µM.

For `CCOC(=O)C1CCC2c3[nH]c4ccccc4c3CCN2C1=O` (stereo unspecified), the EC50 was greater than 115 µM and the IC50 is greater than 115 µM.

Take `O=C(O)CCC(=O)Nc1ccc2c(c1)S(=O)(=O)N(CC(=O)O)C2=O`: the EC50 is greater than 200 µM and the IC50 was greater than 200 µM.

Take `CCCCOC(=O)/C=C(\Br)C(=O)OCCCC`: the result was inactive.

`COc1cccc(C=C2N=C(C)N(n3c(-c4ccccc4)nc4ccccc4c3=O)C2=O)c1`: the EC50 was greater than 200 µM and the IC50 came to 72.4 µM.

For the compound `COc1cc2nncc(SCc3ccc(Cl)cc3Cl)c2cc1OC`, the EC50 was greater than 56.2 µM and the IC50 stood at 52.5 µM.

With `O=C(Nc1ccccc1)c1cc2cc(O)c(O)cc2cn1`, the EC50 is greater than 158 µM and the IC50 was determined as 7.41 µM.

On to `Cc1cc(S(=O)(=O)O)c(NC(=O)C(=O)Cc2cc(=O)oc3cc(O)ccc23)cc1Cl`, for which the EC50 is greater than 79.4 µM and the half-inhibitory concentration (IC50) was greater than 79.4 µM.

With `O=C1c2c(O)cc(O)cc2OC(c2ccc(O)cc2O)C1O` (stereo unspecified), the EC50 is greater than 200 µM and the 50% inhibitory concentration (IC50) was found to be 93.3 µM.

As to `CCOc1ccccc1-c1nc2c(s1)C(=O)c1ccccc1C2=O`, the EC50 was greater than 200 µM and the IC50 is 32.4 µM.

Regarding `CCOC(=O)CC(C)P(c1ccccc1)C(C)CC(=O)OCC` (stereo unspecified), the EC50 was greater than 741 µM and the IC50 is greater than 741 µM.

On to `S=C(S)N(Cc1ccccc1)Cc1ccccc1`, for which the EC50 was greater than 200 µM and the IC50 came to 24.5 µM.

On to `C/C(=N\N=C(/[Se])N1CC2CCC(CC2)C1)c1ccccn1`, for which the EC50 is greater than 53.7 µM and the IC50 was determined as 0.17 µM.

With `CSc1c(S(C)=O)c2ccccc2n1C` (stereo unspecified), the EC50 was greater than 200 µM and the concentration for half-maximal inhibition (IC50) is greater than 200 µM.

Consider `c1ccc(C2=NNc3cccc[n+]3C2)cc1`, for which the EC50 was greater than 871 µM and the half-maximal inhibitory concentration (IC50) is 447 µM.

Consider `O=C1CC(c2ccccc2)=Nc2ccccc2N1`, for which the EC50 is greater than 151 µM and the half-inhibitory concentration (IC50) was greater than 151 µM.

Consider `COc1cc(CNc2nc3ccc(C(F)(F)F)cc3nc2-c2ccccc2)cc(OC)c1OC`, for which the EC50 was greater than 11.2 µM and the half-inhibitory concentration (IC50) is greater than 11.2 µM.

Turning to `N/N=C(\C(=O)Nc1c(Cl)cc([N+](=O)[O-])cc1Cl)C(c1cnc2ccc([N+](=O)[O-])cc2n1)[N+](=O)[O-]` (stereo unspecified), the EC50 is greater than 70.8 µM and the half-maximal inhibitory concentration (IC50) was greater than 70.8 µM.

For `O=c1c2cc(Br)ccc2n(C2OC(CO)C(O)C(O)C2O)c(=S)n1-c1ccccc1` (stereo unspecified), the EC50 was greater than 52.5 µM and the 50% inhibitory concentration (IC50) is greater than 52.5 µM.

As for `O=C(O)/C=C/c1ccccc1[N+](=O)[O-]`, the EC50 was greater than 257 µM and the IC50 is greater than 257 µM.

With `O=C(O)CCSSCCCCS(=O)O`, the EC50 is greater than 200 µM and the half-inhibitory concentration (IC50) was determined as 2.04 µM.

In the case of `O=c1c2ccccc2[se]n1-c1ccccc1`, the EC50 is 1.62 µM and the IC50 is 17.8 µM.

Turning to `Cc1cccc(C)c1NC(=O)CCc1nnc2s/c(=C\c3ccc(Cl)cc3)c(=O)n12`, the EC50 is greater than 1.7 µM and the IC50 was greater than 1.7 µM.

Consider `Cc1ccc(NCCCN2CCN(CCCNc3ccc(C)c4sc5ccccc5c(=O)c34)CC2)c2c(=O)c3ccccc3sc12`, for which the EC50 was greater than 100 µM and the 50% inhibitory concentration (IC50) is greater than 100 µM.

On to `NS(=O)(=O)c1ccc(Nc2c3ccc(Cl)cc3nc3ncccc23)cc1`, for which the outcome was inactive.

As for `CCOc1ccc(NC2OC(CO)C(O)C(O)C2NC(C)=O)cc1` (stereo unspecified), the EC50 was greater than 200 µM and the IC50 was greater than 200 µM.

As to `COc1ccc(C(=O)C(CC2C(=O)CC(C)(C)C(C(=O)C(=O)Nc3c(C)cccc3C)C2=O)c2ccc(OC)cc2)cc1` (stereo unspecified), the EC50 was greater than 427 µM and the IC50 came to 372 µM.

Take `CCOc1ccc(N2CC(=O)N3CCCN3C(=O)C2)cc1`: the EC50 is greater than 123 µM and the IC50 was greater than 123 µM.

For `CC(=C\c1ccccc1)/C=C(\C#N)C(N)=O`, the EC50 is greater than 200 µM and the 50% inhibitory concentration (IC50) was found to be 97.7 µM.

As to `S=C1NC2=C(COC/C2=C\c2cccc(Cl)c2)C(c2cccc(Cl)c2)N1` (stereo unspecified), the result was inactive.

For `NC(N)=NS(=O)(=O)c1ccc(Nc2c3ccccc3nc3c(C(=O)Nc4ccc(S(N)(=O)=O)cc4)cccc23)cc1`, the EC50 was 8.32 µM and the IC50 was found to be 31.6 µM.

For `CN(C)CCN(C)c1ccc2c(=O)n(CCN(C)C)c(=O)n3c4ccccc4c(=O)c1c23`, the EC50 was greater than 0.2 µM and the half-maximal inhibitory concentration (IC50) came out at 0.11 µM.

As for `O=C(Nc1ccc(C2=NCCN2)cc1)c1ccc(C(=O)Nc2ccc(C3=NCCN3)cc2)c(Cl)c1`, the EC50 is greater than 200 µM and the IC50 amounted to 49 µM.

Turning to `CC1(C)CCCCCCCCCC(C)(CCCO)C1=O` (stereo unspecified), the EC50 was greater than 200 µM and the IC50 came out at 26.9 µM.

Consider `N=c1c2ncn(C3OC(CO)CC3F)c2ncn1O` (stereo unspecified), for which the result was inactive.

Turning to `COC(=O)/C(=N\NC(N)=O)C(C(=O)C(=O)Nc1ccccc1C(=O)OC)c1nc2ccc(C(=O)c3ccccc3)cc2[nH]c1=O` (stereo unspecified), the result was inactive.

As for `O=C(C#Cc1ccccc1)N1c2ccccc2CC1c1c[nH]c2ccccc12` (stereo unspecified), the EC50 is greater than 20 µM and the 50% inhibitory concentration (IC50) was found to be 8.32 µM.

For the compound `Cc1ccc(NC(=O)CCc2nnc3s/c(=C\c4cccc([N+](=O)[O-])c4)c(=O)n23)cc1`, the EC50 was greater than 1.74 µM and the IC50 was greater than 1.74 µM.

These data come from PubChem BioAssay AID179 (DTP/NCI, 2004).
